The target in one assay is Mu-type opioid receptor (Cavia porcellus, UniProt P97266). As to the kind of experiment: Binding affinity against opioid receptor mu in guinea pig brain homogenates, using [3H]DAMGO as radioligand. The format is tissue-based.
The target in assay [1] is Kappa-type opioid receptor (Cavia porcellus, UniProt P41144). As to the kind of experiment: Binding affinity against opioid receptor kappa from guinea pig brain homogenates, using [3H]U-69593 as radioligand. The format is tissue-based.
Chain of Kappa-type opioid receptor (P41144 whole entry): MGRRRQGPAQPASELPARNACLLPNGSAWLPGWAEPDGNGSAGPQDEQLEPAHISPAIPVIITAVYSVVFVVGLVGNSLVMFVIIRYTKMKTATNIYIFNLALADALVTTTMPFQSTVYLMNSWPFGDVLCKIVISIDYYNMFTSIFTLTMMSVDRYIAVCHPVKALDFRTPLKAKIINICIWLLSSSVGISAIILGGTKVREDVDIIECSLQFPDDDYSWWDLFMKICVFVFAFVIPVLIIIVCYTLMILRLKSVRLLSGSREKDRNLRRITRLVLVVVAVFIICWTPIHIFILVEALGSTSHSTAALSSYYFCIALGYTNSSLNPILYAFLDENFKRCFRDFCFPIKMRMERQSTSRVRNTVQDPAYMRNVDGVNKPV
Assay [2] in a line: Binding affinity against Opioid receptor delta 1 in guinea pig brain homogenates, using [3H]DPDPE as radioligand.

SMILES strings stand for the structures. Positions of bridges follow the written chain, without caps; N, C: chain ends. Non-standard residues stand in square brackets, D forms with d. Residues, ends and D or L forms follow the SMILES beside them. Pen = CC(C)(S)[C@H](N)C(=O)O A value given as a limit tells only on which side of the number the result lay.

Chain of Mu-type opioid receptor (P97266 whole entry): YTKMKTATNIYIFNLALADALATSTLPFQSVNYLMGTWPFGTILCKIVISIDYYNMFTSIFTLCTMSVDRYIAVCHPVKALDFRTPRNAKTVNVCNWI

A word on the Ki: it is a measure of affinity in units of concentration, obtained from inhibition or displacement. High values mean lower affinity, low ones higher affinity. As to `CC1(C)SSC[C@@H](NC(=O)[C@H]2NCC[C@@H]2c2ccc(O)cc2)C(=O)N[C@@H](Cc2ccccc2)C(=O)N[C@@H]1C(=O)O`, the Ki on Mu-type opioid receptor amounted to 0.105 µM; in assay [1] it was 10 µM.

`CC1(C)SSC[C@@H](NC(=O)[C@@H]2NCC[C@@H]2c2ccc(O)cc2)C(=O)N[C@@H](Cc2ccccc2)C(=O)N[C@@H]1C(=O)O`: the Ki is 10 µM on Mu-type opioid receptor and greater than 10 µM in assay [1].

In assay [2], `CC1(C)SSC[C@H](NC(=O)[C@@H](N)Cc2ccc(O)cc2)C(=O)N[C@@H](Cc2ccccc2)C(=O)N[C@@H]1C(=O)O` (H-YCF[Pen]-OH; disulfide 2-4) showed a Ki of 0.00179 µM.

Source of the values: ChEMBL document CHEMBL1126095, “Incorporation of a novel conformationally restricted tyrosine analog into a cyclic, delta opioid receptor selective tetrapeptide (JOM-13) enhances delta receptor binding affinity and selectivity” (J Med Chem, 1992).
